Measured values taken from patent US12612358B2, “Resorcinol-based compounds and uses thereof” (priority 2020, dated 2026).
Read-outs that look alike come from different tables or passages of the source.

Assays:
PANC-1 = experiment: CellTiter-Glo cell proliferation, PANC-1 pancreatic cancer cells; assay type: cell-based, human; conditions: Homo sapiens; PANC-1 (by context); read-out: IC50, inhibition of cell viability/proliferation
From the text: Cell culture and treatment of pancreatic cancer cell lines: Pancreatic cancer cells lines BxPC-3, SW1990, and PANC-1 used in the experiments presented herein can be obtained from ATCC. The cells can be cultured and passaged in complete growth medium (RPMI-1640, Dulbecco's Modified Eagle Medium, or Leibovitz's L-15 medium) that has been supplemented with fetal bovine serum to a final concentration of 10%.
Effects of Compound-5B on proliferation and Id-1 expression in pancreatic cell lines. Compound-5B was next tested for inhibition of cell viability/proliferation in the three pancreatic cancer cell lines and two primary patient-derived cancer cell lines. Compound-5B inhibited cell viability/proliferation of all the cancer cell lines (Table 2). The culturing condition for the pancreatic cell lines was similar to those used in the breast cancer lines, with the exception of the primary patient-derived pancreatic cancer cell lines (PANC9 and PANC13). For determining inhibition of cell proliferation in patient-derived pancreatic cancer cells were cultured in a T75 ultra low attachment flasks with DMEM/F12 media supplemented with B27, penicillin/streptomycin (10,000 u/mL), 50 µg/mL human epidermal growth factor (hEGF), 50 μg/mL human fibroblast growth factor, and 5 μg/mL heparin. Cells were plated in a 384-well plate and incubated for three days to promote the formation of tumorspheres. Cells were then treated with Compound-5B for three days. Cell proliferation of pancreatic cells in the presence of drug was measured using the CellTiter-Glo luminescent Assay and IC50 values were calculated (Table 2). The IC50 and corresponding 95% confidence limits (CL) were calculated using non-linear regression analysis.

MDA-MB231 D3H = experiment: CellTiter-Glo viability/proliferation assay, MDA-MB231 breast cancer cells; assay type: cell-based; conditions: Homo sapiens, MDA-MB-231, 48 h, read-out: Inhibition of MDA-MB231 D3H
SKOv3 (ovarian) = experiment: Cell proliferation, SKOv3 ovarian cancer cells; assay type: cell-based; conditions: Homo sapiens, SK-OV-3, read-out: IC50 category
From the text: Effects of Compound-5B on cell proliferation in additional cancer cells: To determine whether Compound-5B would have broad based anticancer activity, we study whether Compound-5B would be effective at inhibiting cell proliferation in a variety of cancers overexpressing Id-1. The assay conditions used were identical to those presented for breast and pancreatic cancers. Indeed, Compound-5B was potent at inhibiting cell proliferation in blood cancer (leukemia), glioblastoma, prostate, and ovarian cancer.

PANC-1 tumors = experiment: PANC-1 subcutaneous xenograft in athymic nu/nu mice; assay type: in vivo; conditions: PANC-1 tumor mice; Compound-5B 10 mg/kg i.p. daily, gemcitabine 50 mg/kg i.p. three times a week
[1] = CellTiter-Glo, two-day treatment

Compound | IC50 (MDA-MB231 D3H; [1]) [nM] | further results
C=C(C)[C@@H]1CCC(C)=C[C@H]1c1c(O)cc(CCCCC)cc1O [CBD, cannabidiol, reference compound] |  | IC50 (PANC-1): 1900 nM
CCCCCCC(C)(C)c1cc(O)c(C(=O)NC2CCCCC2)c(O)c1 [Compound 5A, N-cyclohexyl-2,6-dihydroxy-4-(2-methyloctan-2-yl)benzamide] |  | IC50 (MDA-MB231 D3H): < 500 nM
CCCCCCC(C)(C)c1cc(O)c(C(=O)Nc2ccccn2)c(O)c1 [Compound 5C, 2,6-dihydroxy-4-(2-methyloctan-2-yl)-N-(cyridin-2-yl) benzamide] | < 500 | 
CCCCCCC(C)(C)c1cc(O)c(C(=O)Nc2ccncn2)c(O)c1 [Compound 5D, 2,6-dihydroxy-4-(2-methyloctan-2-yl)-N-(pyrimidin-4-yl)benzamide] | < 500 | 
CCCCCCC(C)(C)c1cc(O)c(C(=O)N(C)c2ccccc2)c(O)c1 [Compound 5E, 2,6-dihydroxy-N-methyl-4-(2-methyloctan-2-yl)-N-phenylbenzamide] |  | IC50 (MDA-MB231 D3H): 1000 to 5000 nM; IC50 (SKOv3 (ovarian)): 500 to 1000 nM
CCCCCCC(C)(C)c1cc(O)c(C(=O)Nc2ccc(N3CCN(C)CC3)cc2)c(O)c1 [Compound 5F, 2,6-dihydroxy-4-(2-methyloctan-2-yl)-N-(4-(4-methylpiperazin-1-yl)phenyl)benzamide] | > 15000 | 
CCCCCCC(C)(C)c1cc(O)c(C(=O)Nc2cccc(N3CCN(C)CC3)c2)c(O)c1 [Compound 5G, 2,6-dihydroxy-4-(2-methyloctan-2-yl)-N-(3-(4-methylpiperazin-1-yl)phenyl)benzamide] | 1000 to 5000 | 
CCCCCCC(C)(C)c1cc(O)c(C(=O)Nc2ccccc2N2CCN(C)CC2)c(O)c1 [Compound 5H, 2,6-dihydroxy-4-(2-methyloctan-2-yl)-N-(2-(4-methylpiperazin-1-yl)phenyl)benzamide] | 500 to 1000 | 
CCCCCCC(C)(C)c1cc(O)c(C(=O)Nc2ccc(N3CCOCC3)cc2)c(O)c1 [Compound 5I, 2,6-dihydroxy-4-(2-methyloctan-2-yl)-N-(4-morpholinophenyl)benzamide] | < 500 | 
CCCCCCC(C)(C)c1cc(O)c(C(=O)Nc2cccc(N3CCOCC3)c2)c(O)c1 [Compound 5J, 2,6-dihydroxy-4-(2-methyloctan-2-yl)-N-(3-morpholinophenyl)benzamide] | < 500 | 
CCCCCCC(C)(C)c1cc(O)c(C(=O)Nc2ccccc2N2CCOCC2)c(O)c1 [Compound 5K, 2,6-dihydroxy-4-(2-methyloctan-2-yl)-N-(2-morpholinophenyl)benzamide] | < 500 | 
CCCCCc1cc(O)c(C(=O)Nc2ccccc2)c(O)c1 [Compound 11, 2,6-dihydroxy-4-pentyl-N-phenylbenzamide] | < 500 | 
CC(C)(c1ccccc1)c1cc(O)c(C(=O)NC2CCCCC2)c(O)c1 [Compound 17A, N-cyclohexyl-2,6-dihydroxy-4-(2-phenylpropan-2-yl)benzamide] |  | IC50 (MDA-MB231 D3H): 500 to 1000 nM
CC(C)(c1ccccc1)c1cc(O)c(C(=O)Nc2ccccc2)c(O)c1 [Compound 17B, 2,6-dihydroxy-N-phenyl-4-(2-phenylpropan-2-yl)benzamide] | < 500 | 
CC(C)(c1cc(O)c(C(=O)Nc2ccccc2)c(O)c1)C1CCCCC1 [Compound 17C, 4-(2-cyclohexylpropan-2-yl)-2,6-dihydroxy-N-phenylbenzamide] |  | IC50 (MDA-MB231 D3H): < 500 nM
CC(C)(c1cc(O)c(C(=O)Nc2ccccn2)c(O)c1)C1CCCCC1 [Compound 17D, 4-(2-cyclohexylpropan-2-yl)-2,6-dihydroxy-N-(pyridin-2-yl)benzamide] |  | IC50 (MDA-MB231 D3H): < 500 nM
CC(C)(CCCCN1CCOCC1)c1cc(O)c(C(=O)Nc2ccccc2)c(O)c1 [Compound 26A, 2,6-dihydroxy-4-(2-methyl-6-morpholinohexan-2-yl)-N-phenylbenzamide] | 1000 to 5000 | 
Nc1ccn([C@@H]2O[C@H](CO)[C@@H](O)C2(F)F)c(=O)n1 [gemcitabine, reference compound] |  | weight loss (metric of drug toxicity) (PANC-1 tumors): significant weight loss
